{"source": "ChEMBL document CHEMBL1130992", "about": "“Effect of side chain location in (2-aminoethyl)-aminomethyl-2-phenylquinolines as antitumor agents” (1998)", "key": {"HeLa [1]": {"test_system": "HeLa", "test": "Compound was tested for antitumor activity against the human uterine cancer cell (HeLa) line at concentration of […] x 10 e-5 M", "assay_type": "functional"}, "HeLa [2]": {"test_system": "HeLa", "test": "Compound was tested for antitumor activity against the human uterine cancer cell (HeLa) line at concentration of 1 x 10 e-6 M", "assay_type": "functional"}, "HeLa [3]": {"test_system": "HeLa", "test": "Compound was tested for antitumor activity against the human uterine cancer cell (HeLa) line at concentration of 1 x 10 e-7 M", "assay_type": "functional"}, "HeLa [4]": {"test_system": "HeLa", "test": "Compound was tested for antitumor activity against the human uterine cancer cell (HeLa) line at concentration of […] x 10 e-4 M", "assay_type": "functional"}, "Nucleic Acid [5]": {"test_system": "Nucleic Acid", "test": "Compound was evaluated for DNA-binding affinity using calf-thymus DNA", "assay_type": "nucleic-acid assay", "conditions": "Bos taurus"}, "Nucleic Acid [6]": {"test_system": "Nucleic Acid", "test": "Compound was evaluated for DNA-binding affinity using poly[d(AT)]2", "assay_type": "nucleic-acid assay"}, "Nucleic Acid [7]": {"test_system": "Nucleic Acid", "test": "Compound was evaluated for DNA-binding affinity using poly[d(GC)]2", "assay_type": "nucleic-acid assay"}, "[8]": {"test": "Ratio of C50(GC) to that of C50(AT)"}}}
{"smiles": "Cl.Cl.NCCNCc1ccc2nc(-c3ccccc3)ccc2c1", "values": [{"measurement": "Cell survival", "setting": "HeLa [1]", "value": 44, "unit": "%"}, {"measurement": "Cell survival", "setting": "HeLa [2]", "value": 82, "unit": "%"}, {"measurement": "Cell survival", "setting": "HeLa [3]", "value": 85, "unit": "%"}, {"measurement": "Cell survival", "setting": "HeLa [4]", "value": 0, "unit": "%"}]}
{"smiles": "Cl.Cl.Cl.NCCNCc1cc(-c2ccccc2)nc2ccccc12", "values": [{"measurement": "C50", "setting": "Nucleic Acid [5]", "value": 30, "unit": "µM"}, {"measurement": "C50", "setting": "Nucleic Acid [6]", "value": 33, "unit": "µM"}, {"measurement": "C50", "setting": "Nucleic Acid [7]", "value": 48, "unit": "µM"}, {"measurement": "Cell survival", "setting": "HeLa [1]", "value": 52, "unit": "%"}, {"measurement": "Cell survival", "setting": "HeLa [2]", "value": 62, "unit": "%"}, {"measurement": "Cell survival", "setting": "HeLa [3]", "value": 74, "unit": "%"}, {"measurement": "Cell survival", "setting": "HeLa [4]", "value": 8, "unit": "%"}, {"measurement": "Ratio", "setting": "[8]", "value": 1.5}]}
{"smiles": "Cl.Cl.Cl.NCCNCc1ccc2ccc(-c3ccccc3)nc2c1", "values": [{"measurement": "C50", "setting": "Nucleic Acid [5]", "value": 11, "unit": "µM"}, {"measurement": "C50", "setting": "Nucleic Acid [6]", "value": 11, "unit": "µM"}, {"measurement": "C50", "setting": "Nucleic Acid [7]", "value": 16, "unit": "µM"}, {"measurement": "Cell survival", "setting": "HeLa [1]", "value": 31, "unit": "%"}, {"measurement": "Cell survival", "setting": "HeLa [2]", "value": 70, "unit": "%"}, {"measurement": "Cell survival", "setting": "HeLa [3]", "value": 98, "unit": "%"}, {"measurement": "Cell survival", "setting": "HeLa [4]", "value": 3, "unit": "%"}, {"measurement": "Ratio", "setting": "[8]", "value": 1.5}]}
{"smiles": "Cl.Cl.Cl.NCCNCc1cccc2ccc(-c3ccccc3)nc12", "values": [{"measurement": "C50", "setting": "Nucleic Acid [5]", "value": 2.1, "unit": "µM"}, {"measurement": "C50", "setting": "Nucleic Acid [6]", "value": 5.2, "unit": "µM"}, {"measurement": "C50", "setting": "Nucleic Acid [7]", "value": 5.6, "unit": "µM"}, {"measurement": "Cell survival", "setting": "HeLa [1]", "value": 7, "unit": "%"}, {"measurement": "Cell survival", "setting": "HeLa [2]", "value": 65, "unit": "%"}, {"measurement": "Cell survival", "setting": "HeLa [3]", "value": 77, "unit": "%"}, {"measurement": "Cell survival", "setting": "HeLa [4]", "value": 0, "unit": "%"}, {"measurement": "Ratio", "setting": "[8]", "value": 1.1}]}
{"smiles": "Cl.Cl.Cl.NCCNCc1ccc(-c2ccc3ccccc3n2)cc1", "values": [{"measurement": "C50", "setting": "Nucleic Acid [5]", "value": 7, "unit": "µM"}, {"measurement": "C50", "setting": "Nucleic Acid [6]", "value": 7, "unit": "µM"}, {"measurement": "C50", "setting": "Nucleic Acid [7]", "value": 11, "unit": "µM"}, {"measurement": "Cell survival", "setting": "HeLa [1]", "value": 65, "unit": "%"}, {"measurement": "Cell survival", "setting": "HeLa [2]", "value": 87, "unit": "%"}, {"measurement": "Cell survival", "setting": "HeLa [3]", "value": 79, "unit": "%"}, {"measurement": "Cell survival", "setting": "HeLa [4]", "value": 3, "unit": "%"}, {"measurement": "Ratio", "setting": "[8]", "value": 1.6}]}
{"smiles": "Cl.Cl.Cl.NCCNCc1c2ccccc2nc2ccccc12", "values": [{"measurement": "Cell survival", "setting": "HeLa [1]", "value": 71, "unit": "%"}, {"measurement": "Cell survival", "setting": "HeLa [2]", "value": 94, "unit": "%"}, {"measurement": "Cell survival", "setting": "HeLa [3]", "value": 100, "unit": "%"}, {"measurement": "Cell survival", "setting": "HeLa [4]", "value": 3, "unit": "%"}]}
